This assay has as its target T1, Dihydrofolate reductase (Pneumocystis jirovecii, UniProt Q9UUP5).
T1 sequence (Q9UUP5 whole entry): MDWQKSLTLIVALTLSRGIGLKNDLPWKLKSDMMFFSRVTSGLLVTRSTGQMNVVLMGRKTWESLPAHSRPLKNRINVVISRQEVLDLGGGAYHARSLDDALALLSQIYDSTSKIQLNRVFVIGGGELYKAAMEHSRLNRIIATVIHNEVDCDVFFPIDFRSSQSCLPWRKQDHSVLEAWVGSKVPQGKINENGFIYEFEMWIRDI
In words: Kinase Inhibition Assay.

From BindingDB's records for patent US11111252 (Duquesne University of The Holy Spirit, 2021) come the findings set out here.

Structures are written as SMILES.

`COc1ccc(Sc2sc3nc(N)nc(N)c3c2C)cc1OC` [US11111252, Compound 1] showed a half-maximal inhibitory concentration (IC50) of 260 nM.

Regarding `COc1ccc(Sc2c(C)c3c(N)nc(N)nc3n2C)cc1OC` [US11111252, Compound 9], it took 234 nM to reach half-maximal inhibition (IC50).
